In general, IC50 refers to the concentration that inhibits the measured activity by half.

The test relates to HT-29 cells. Nature of the test: 1,536-well high-content imaging ALDEFLUOR assay, HT-29. The note with it: for IC50: read-out: Aldefluor IC50 HT-29; for Activity in ALDEFLUOR assay, HT-29: semi-automated, active = high quality concentration response curve and >50% efficacy, up to 45.8 μM. In kind it is cell-based, human. The method, then:
To miniaturize the assay into a 1536-well format amenable to qHTS, we chose MIA PaCa-2 and HT-29 because of their high levels of ALDH1A1(Fig 1A). Utilizing the 8-step protocol described by Ming et al. as a starting point, we developed a “semi-automated” protocol described in S1 Table. Briefly, we plated 1,000 cells in a volume of 5 μL/well into black-optical quality clear bottom 1,536-well plates, and allowed cells to attach overnight. Culture media was subsequently removed by inverting and centrifuging plates using a plate adaptor as previously described and replaced with 5 μL of a solution of either 500 or 100 nM BAAA substrate in ALDEFLUOR buffer. To identify cells based on nuclear staining, we also included 0.5 nM Hoechst 33342 in the above buffer. […] After incubating the plate for 30 minutes at 37°C, 5% CO2, 85% RH, the remaining substrate was removed by centrifugation as above and replaced with 3 μL of ALDEFLUOR buffer. Fluorescence was subsequently imaged using the IN Cell Analyzer 2200 high-content widefield fluorescence based imager and the resulting images were quantified using the IN Cell Investigator v1.6.2 analysis software (see Experimental Procedures for analysis details).
The ALDEFLUOR kit was purchased from […] Technologies (Vancouver, Canada; #01700). Cells (5 μL) were dispensed into black, optical quality (cyclic olefin copolymer) clear bottom, medium binding TC treated 1,536-well plates (Aurora Microplates, Whitefish MT) using a Multidrop Combi dispenser (ThermoFisher) and incubated overnight (37°C, 5% CO2, 85% RH). Media was subsequently removed by centrifuging plates upside down using a plate adaptor to collect media. A solution of BAAA substrate ([…] Technologies) and Hoechst 33342 (ThermoFisher, final concentrations of 500 nM and 0.5 nM, respectively) in ALDEFLUOR buffer ([…] Technologies #01700) was dispensed onto cells using a Multidrop Combi followed by immediate transfer (23 nL) of compound or control solutions using a Wako Pin-tool (final percentage of DMSO in the cell plates was 0.5%). Unless otherwise noted, all compounds were assayed as 16-point dilutions spanning a final concentration range of 1.4 nM to […]. […] Cells were incubated for 30 minutes or the indicated amount of time at 37°C, 5% CO2, 85% RH to allow the conversion of BAAA into BAA. Supernatant was subsequently removed by centrifugation as described above, then ALDEFLUOR buffer (3 μl) was dispensed by Multidrop Combi before imaging on an IN Cell 2200 (GE Healthcare).
The above assay was modified for an online robotic screening system. After cell plating and overnight incubation, 4 μL of media were removed using a 64-tip metal aspirator head on a Wako aspirator station, leaving 1 μL remaining in the well, followed by a 4 μL dispense of BAAA and Hoechst 33342 in ALDEFLUOR buffer, for a final concentration of 500 nM and 0.5 nM, respectively. Immediately following the dispense, 23 nL of compound or control solutions were transferred using a Wako Pin-tool. Cells were incubated for 30 minutes at 37°C, 5% CO2, 85% RH, followed by a 4 μL media removal using the Wako aspirator, and a subsequent 3 μL addition of ALDEFLUOR buffer. Plates were then immediately read on the IN Cell 2200 as described below.
For images captured on the IN Cell 2200 widefield automated microscope, a 10x 0.45 NA Plan Apo objective lens was used to capture the entire well of the 1,536-well plate using standard DAPI (390/18x, 432/48m) and FITC (475/28x, 525/48m) filter sets at 50 msec and 100 msec exposures, respectively. Images were subsequently analyzed using IN Cell Investigator v1.6.2 analysis software’s canned Multi-Target Analysis algorithm (GE Healthcare). Hoechst stained nuclei were identified using top hat segmentation with a minimum area of 75 μm^2 and sensitivity of 93. […]

Setting [1] is: Homo sapiens, HT-29, 0.5 h, validation set, semi-automated protocol, 16-point dilution, 1,000 cells/well, 500 nM BAAA, 30 min.
[2] abbreviates: validation set, semi-automated protocol, 16-point dilution, 1,000 cells/well, 500 nM BAAA, 30 min.

Where two headings read alike, the source gives them in different places.

Regarding `CC(C)=CCCC(C)=CC=O` (mixture of isomers) [Citral], the IC50 was around 27 µM under setting [1] and 26.6 µM under setting [2].
For the compound `COc1ccc(C(=O)CCN(C)C)cc1F` [Aldi-2], under setting [2], the IC50 was 17.5 µM.
Take `CC(C)(C)c1ccc(S(=O)(=O)/C=C/C#N)cc1` [Bay-11-7085]: the IC50 under setting [2] amounted to 14.3 µM.
With `Cc1nc2ccccc2n1S(=O)(=O)c1ccc(F)cc1` [CB7], the “Activity in ALDEFLUOR assay, HT-29” value is “tested negative”.
Take `CCOc1ccc(NCC(=O)Nc2ccc(Cl)cc2C)cc1` [CID 725345]: the IC50 under setting [2] came out at 14.5 µM.
Regarding `COc1cccc2cc(C(=O)CC3(O)C(=O)N(Cc4ccccc4)c4ccccc43)c(=O)oc12` (centres unmarked) [CID 2929292], the “Activity in ALDEFLUOR assay, HT-29” value is given as “tested negative”.
`CCN(CC)c1ccc(C=O)cc1` [DEAB, 4-N,N-diethylaminobenzaldehyde]: under setting [2], the IC50 is 1.69 µM.
With `O=c1c(-c2ccc(O)cc2)coc2cc(O[C@@H]3O[C@H](CO)[C@@H](O)[C@H](O)[C@H]3O)ccc12` [Daidzin], the “Activity in ALDEFLUOR assay, HT-29” value was “tested negative”.
With `CCN(CC)C(=S)SSC(=S)N(CC)CC` [Disulfiram], the IC50 under setting [1] came to 10.9 µM.
Turning to `Cc1cc2c(C(C)C)c(O)c(O)c(C=O)c2c(O)c1-c1c(C)cc2c(C(C)C)c(O)c(O)c(C=O)c2c1O` [Gossypol], the “Activity in ALDEFLUOR assay, HT-29” value was “active”. The IC50 (Homo sapiens, HT-29, 0.5 h) was determined as 16.5 µM.
`Nc1ccccc1C(=O)CC(N)C(=O)O` (centres unmarked) [Kynurenine]: the “Activity in ALDEFLUOR assay, HT-29” value was “tested negative”.
Turning to `C#CCN(C)Cc1ccccc1` [Pargyline], the “Activity in ALDEFLUOR assay, HT-29” value is given as “active”. Further, under setting [1], the IC50 was determined as 33.5 µM.
Turning to `O=C1Nc2ccccc2C1=O` [indoline-2,3-dione], under setting [1], the IC50 turned out to be 17.8 µM.
With CVT-10216, the “Activity in ALDEFLUOR assay, HT-29” value is on record as “tested negative”.

The record behind these values is publication PMC5271370, “A High-Content Assay Enables the Automated Screening and Identification of Small Molecules with Specific ALDH1A1-Inhibitory Activity” (PLoS ONE, 2017).
